Measured values as given in patent publication US6323235A, “Benzene-condensed heterocyclic derivatives and their uses” (priority 1995, dated 2001).

Experiments:
TXA2 receptor [1] = target: T1, TXA2 receptor (Oryctolagus cuniculus, UniProt Q6WQI8); experiment: TXA2 Receptor Binding Test 1 ([3H]SQ29548, washed rabbit platelets); set-up: species or system New Zealand White rabbit; settings: [3H]SQ29548 3 nM, rabbit washed platelets 10 mg/ml, 25° C., 60 minutes
T1 sequence (Q6WQI8 1-233): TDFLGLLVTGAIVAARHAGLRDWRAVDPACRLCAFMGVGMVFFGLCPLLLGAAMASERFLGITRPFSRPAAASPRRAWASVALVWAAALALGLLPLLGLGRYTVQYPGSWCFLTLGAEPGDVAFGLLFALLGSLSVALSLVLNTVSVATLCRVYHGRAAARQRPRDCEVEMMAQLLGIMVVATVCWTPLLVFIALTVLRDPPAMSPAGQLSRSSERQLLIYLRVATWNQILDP
Experimental: TXA2 Receptor Binding Test 1
Blood from a New Zealand White rabbit is taken in a vessel containing ACD solution (prepared by dissolving 1.175 g of sodium citrate, 0.685 g of citric acid and 1 g of dextrose in 50 ml of distilled water) and centrifuged at 180×g for 10 minutes at room temperature to obtain platelet-rich plasma. The obtained platelet-rich plasma is centrifuged at […] at room temperature to precipitate platelets. The platelets are then suspended in 50 mM Tris-HCl buffer (pH 7.2, containing 0.154M of NaCl) and the suspension is centrifuged at 2800×g for 15 minutes at 4° C. These operations are repeated twice to prepare washed platelets and the concentration of the platelets are adjusted to a final concentration of 10 mg/ml (wet weight).
As the ligand of TXA2, tritium-labelled SQ29548 ([^3 H]SQ29548) is used. In the antagonism test, 20 μl of [^3 H]SQ29548 having a final concentration of 3 nM is added to 500 μl of a platelet suspension having a platelet concentration of 10 mg/ml and 2.6 μl of a solution of a test compound dissolved in an appropriate solvent is added thereto. After incubating the resulting mixture at 25° C. for 60 minutes, the mixture is filtered through a glass filter by the cell harvester method. After washing the filter with 50 mM Tris-HCl buffer (3×4 ml), the radioactivity of the filter is measured by a scintillation counter, thereby measuring the amount of the [^3 H]SQ29548 bound to platelets. In the saturation test, 20 μl of [^3 H]SQ29548 is added to a final concentration of 0.1-50 nM and 2.6 μl of BM13505 having a final concentration of 1 μM is added so as to check non-specific binding, followed by carrying out the binding test. The concentration of the test compound at which binding of [^3 H]SQ29548 is inhibited by 50% is determined as the IC50 value.
The results of the evaluation of the activities of the compounds of the present invention by this method are summarized d in Table 3.

[2] = system: platelet aggregation induced by ADP; experiment: Platelet Aggregation-Inhibition Action 2 (ADP-induced, platelet-rich plasma); format: cell-based; settings: ADP 1-3 μM final, PRP, compound added one minute before ADP
Experimental: Platelet Aggregation-Inhibition Action 2
(§1) Blood collected from medial cubital vein is centrifuged at 800 rmp for 10 minutes and the upper portion of the resultant is collected as platelet-rich plasma PRP). The PRP is dividedly poured into small test tubes and ADP is added thereto (final concentration: 1-3 μM) so as to induce platelet aggregation. The degree of platelet aggregation is measured in terms of change in turbidity by a platelet aggregation measuring apparatus Hematoracer, NIKO BIOSCIENCE). The compound is added one minute before the addition of ADP the concentration of the compound at which the aggregation is inhibited by 50% is calculated as IC50 value.

[3] = system: platelet aggregation induced by TXA2 agonist U-46619; experiment: Platelet Aggregation-inhibition Action 1 (U-46619-induced, platelet-rich plasma); format: cell-based; settings: U-46619 1-4 μM final, PRP, compound added one minute before U-46619
Experimental: Platelet Aggregation-inhibition Action 1
as §1, with “plasma (PRP).” for “plasma PRP).”, “and a TXA2 agonist U-46619” for “and ADP”, “concentration: 1-4” for “concentration: 1-3”, “apparatus (Hematoracer,” for “apparatus Hematoracer,”, “of U-46619 and” for “of ADP”

PGI2 receptor = target: T2, PGI2 receptor (Homo sapiens, UniProt P43119); experiment: PGI2 Receptor Binding Test ([3H]APS-314d, platelet membrane fraction); settings: platelet membrane fraction 0.1 mg protein/ml, 4° C., 60 minutes, Ki=IC50/[1+(radioactive ligand concentration/Kd)]
T2 construct: platelet membrane fraction having a concentration of 0.1 mg protein/ml; endogenous in cells
Experimental: PGI2 Receptor Binding Test
As the ligand of PGI2 receptor, tritium-labelled (1R,2R,3aS,8bS)-2,3,3a,8-tetrahydro-2-hydroxy-1-[(E)-(3S,4S)-3-hydroxy-4-methyl-1-octene-6-ynyl]-1H-cyclopenta[b]benzofuran-5-butanoic acid ([^3 H]APS-314d) was used. The saturation test was carried out by reacting [^3 H]APS-314d (100 μl) having a final concentration of 3-100 nM with a suspension (100 μl) of platelet membrane fraction having a concentration of 0.1 mg protein/ml at 4° C. for 60 minutes under shaking. The competition test was carried out by mixing a mixture (100 μl) of a test compound dissolved in an appropriate solvent and then diluted and [^3 H]APS-314d, and the suspension of platelet membrane fraction (100 μl) having a concentration of 0.1 mg protein/ml, and allowing the mixture to react at 4° C. for 60 minutes under shaking. After the reaction, the resultant was filtered through a glass filter using a cell harvester to collect the membrane fraction on the glass filter. The filter was washed with a iced buffer and radioactivity was measured by scintillation counter. The non-specific binding to substances other than the platelets was measured by the reaction in the presence of sodium beraprost having a final concentration of 10 nM. The IC50 value of the test compound and Hill coefficient in the binding test was determined by Pseudo-Hill plot. The receptor dissociation constant (Ki value) was calculated according to the following equation from the IC50 value and the receptor dissociation constant (Kd value) of [^3 H]APS-314d determined in the saturation test.
Ki=IC50 /[1+(radioactive ligand concentration/Kd)]

TXA2 receptor [4] = target: T3, TXA2 receptor (Homo sapiens, UniProt P21731); experiment: TXA2 Receptor Binding Test 2 ([3H]SQ29548, human platelet membrane fraction); settings: 25° C., 30 minutes, pH 7.4, Ki=IC50/[1+(radioactive ligand concentration/Kd)]
T3 construct: the finally obtained precipitate was collected as the platelet membrane fraction; endogenous in cells; host or cells: membrane fraction of human platelets
T3 sequence (P21731 1-343): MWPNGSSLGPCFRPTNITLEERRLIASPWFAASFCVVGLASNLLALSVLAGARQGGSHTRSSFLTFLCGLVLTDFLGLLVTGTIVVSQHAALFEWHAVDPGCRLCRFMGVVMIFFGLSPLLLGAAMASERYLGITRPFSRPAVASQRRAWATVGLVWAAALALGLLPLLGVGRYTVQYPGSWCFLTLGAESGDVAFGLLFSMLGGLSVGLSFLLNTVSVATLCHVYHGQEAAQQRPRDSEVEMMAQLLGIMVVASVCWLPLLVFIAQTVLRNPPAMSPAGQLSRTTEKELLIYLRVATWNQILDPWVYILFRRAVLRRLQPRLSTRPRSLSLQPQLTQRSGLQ
Experimental: TXA2 Receptor Binding Test 2
Blood collected from human forearm vein and ACD solution (85 mM trisodium citrate, 65 mM citric acid, 2% glucose) in an amount of 1/10 volume of the blood were mixed the resultant was dividedly poured into Spitz tubes an amount of 8 ml/tube. The mixture was centrifuged at 200×g for 10 minutes at room temperature to obtain platelet-rich plasma and the obtained platelet-rich plasma was centrifuged at 1000×g for 15 minutes to obtain platelets. The platelets were washed by centrifugation using a washing buffer (115 mM sodium chloride, 4.3 mM potassium dihydrogen phosphate, 5.5 mM glucose, 1 mM disodium EDTA, 10 μM indomethacin, pH 6.5) and 1 ml of a melting buffer (10 mM Tris(hydroxymethyl)aminomethane, 5 mM magnesium chloride, 2 mM disodium EDTA, pH 7.4) was added. The resultant was frozen in liquid nitrogen and thawed at room temperature. By repeating freezing in liquid nitrogen and thawing totally three times, the platelets were ruptured. The resultant was washed three times by ultracentrifugation (40,000×g, each 20 minutes) using iced 5 mM Tris-HCl buffer, and the finally obtained precipitate was collected as the platelet membrane fraction.
As the ligand of TXA2, tritium-labelled SQ29548 ([^3 H]SQ29548) was used. As the solvent for the receptor binding reaction, 50 mM Tris-HCl buffer (5 mM magnesium chloride, pH 7.4) was used. […] The filter was washed with a iced buffer and radioactivity was measured by scintillation counter. The non-specific binding to substances other than the platelets was measured by the reaction in the presence of SQ29548 having a final concentration of […]. The IC50 value of the test compound and Hill coefficient in the binding test was determined by Pseudo-Hill plot. The receptor dissociation constant (Ki value) was calculated according to the following equation from the IC50 value and the receptor dissociation constant (Kd value) of [^3 H]SQ29548 determined in the saturation test. […]

T2 sequence (P43119 whole entry): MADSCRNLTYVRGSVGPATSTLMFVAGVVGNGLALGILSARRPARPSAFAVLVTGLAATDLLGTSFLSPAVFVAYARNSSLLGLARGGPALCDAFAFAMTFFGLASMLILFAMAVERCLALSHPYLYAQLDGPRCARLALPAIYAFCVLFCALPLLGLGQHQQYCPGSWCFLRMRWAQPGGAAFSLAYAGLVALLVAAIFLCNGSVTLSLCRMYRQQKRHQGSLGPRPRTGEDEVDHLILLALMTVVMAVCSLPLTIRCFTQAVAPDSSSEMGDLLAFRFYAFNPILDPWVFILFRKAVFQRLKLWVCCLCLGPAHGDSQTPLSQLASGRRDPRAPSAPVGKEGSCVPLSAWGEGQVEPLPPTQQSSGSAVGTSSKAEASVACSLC

Structure (SMILES)	IC50 (TXA2 receptor [1]) [nM]	IC50 [2] [µM]	IC50 [3] [nM]	Ki (PGI2 receptor) [nM]	Ki (TXA2 receptor [4]) [µM]
Cc1oc2c(OCC(=O)O)cccc2c1CNS(=O)(=O)CCc1ccccc1 [Example 16, (3-(((2-phenylethyl)sulfonylamino)methyl)-2-methylbenzofuran-7-yloxy)aceticacid]	54.5	403	500	–	–
O=C(O)COc1cccc2c(COCCC(c3ccccc3)c3ccccc3)coc12 [Example 48, (3-((3,3-diphenylpropyloxy)methyl)benzofuran-7-yloxy)acetic acid]	–	7.8	4800	380	7.7
COC(=O)COc1cccc2c(CCSC(c3ccccc3)c3ccccc3)coc12 [Example 67, Methyl (3-(2-(diphenylmethylthio)ethyl)benzofuran-7-yloxy)acetate]	–	–	–	–	0.31
O=C(O)COc1cccc2c(CCSC(c3ccccc3)c3ccccc3)coc12 [Example 68]	–	6.2	900	410	–

The next lines start with the values.

IC50 (TXA2 receptor [1]) [nM]	IC50 [2] [µM]	IC50 [3] [nM]	Ki (PGI2 receptor) [nM]	Ki (TXA2 receptor [4]) [µM]	Structure (SMILES)
1100	201	1000	–	–	Cc1oc2c(OCC(=O)O)cccc2c1CNS(=O)(=O)Cc1ccccc1 [Example 15, Methyl (3-((benzylsulfonylamino)methyl)-2-methylbenzofuran-7-yloxy)acetic acid]
51.3	265	440	–	–	Cc1oc2c(OCC(=O)O)cccc2c1CCSCCc1ccccc1 [Example 31, (3-(2-(2-phenylethylthio)ethyl)-2-methylbenzofuran-7-yloxy)acetic acid]
26.7	–	5100	–	–	O=C(O)COc1cccc2c1ccn2CCNS(=O)(=O)c1ccccc1 [Example 104, (1-(2-(phenylsulfonylamino)ethyl)indole-4-yloxy)acetic acid]
–	3.6	1700	440	3.6	O=C(O)COc1cccc2c1ccn2CCCC(c1ccccc1)c1ccccc1 [Example 118, (1-(4,4-diphenylbutyl)indole-4-yloxy)acetic acid]
